Calls of active or inactive are those of the source.
Columns and labels:
HeLa = assay: HeLa cell cytotoxicity, dose response, cytotoxicity control for MITF activator project, CellTiter-Glo luminescence, cherry-pick samples (AID 540259); format: functional, cell-based; details: Homo sapiens
H9c2 = assay: cells; format: functional, cell-based; details: Rattus norvegicus, H9c2, Myocardium;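 note: confirmatory concentration-response retest of ultra-high-throughput screening hits for modulation of myocardial damage; cell death induced by hydrogen peroxide oxidative stress; compound pretreatment for 60 min then peroxide exposure for 2 h; potency is for protecting the cells against peroxide damage rather than for killing them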
[1] = cytotoxicity in HPDE-C7 cells, cell-based, fluorescence, HTS (AID 430); format: functional; details: Homo sapiens
[2] = cytotoxicity in KRAS-transformed pancreatic duct cells, primary screen, cell-based, fluorescence, HTS (AID 431); format: functional; details: Homo sapiens;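 note: cell line used: HPDE-C7K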
Leucine aminopeptidase = molecular target: T1, Leucine aminopeptidase (Plasmodium falciparum 3D7, UniProt Q8IL11); assay: P. falciparum M17LAP inhibitors, primary screen, biochemical, fluorogenic H-Leu-NHMec substrate, 1536-well (AID 1619); format: functional
T1 sequence (Q8IL11 whole entry): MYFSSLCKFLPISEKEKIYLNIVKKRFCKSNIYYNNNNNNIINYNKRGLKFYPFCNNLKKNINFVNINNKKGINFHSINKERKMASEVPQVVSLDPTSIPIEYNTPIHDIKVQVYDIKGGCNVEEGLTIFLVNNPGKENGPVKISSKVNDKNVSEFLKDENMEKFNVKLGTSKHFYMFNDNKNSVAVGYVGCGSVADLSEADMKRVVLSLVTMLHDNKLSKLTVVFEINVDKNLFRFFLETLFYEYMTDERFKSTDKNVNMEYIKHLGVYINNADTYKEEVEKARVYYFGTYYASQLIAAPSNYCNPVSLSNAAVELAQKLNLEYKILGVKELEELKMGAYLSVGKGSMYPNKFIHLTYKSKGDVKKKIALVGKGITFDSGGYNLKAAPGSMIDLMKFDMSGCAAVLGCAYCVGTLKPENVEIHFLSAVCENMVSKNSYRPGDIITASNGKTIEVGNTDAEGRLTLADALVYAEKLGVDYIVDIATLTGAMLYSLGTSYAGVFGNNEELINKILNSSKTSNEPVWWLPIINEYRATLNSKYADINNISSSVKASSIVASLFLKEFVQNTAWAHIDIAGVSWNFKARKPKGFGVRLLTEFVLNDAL

[3] = off-target signal loss in HeLa-CEM21 co-culture – HeLa F-luc CTL cells, cherry-picked, counter-screen for HIV-1 Env fusion inhibitor project, dose response (AID 652040); format: functional, cell-based;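 note: potency for signal decrease marking cytotoxic or nonspecific inhibition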
[4] = inhibitors of HIV Env-driven cell fusion, dose response, cherry-pick (AID 652057); format: functional, cell-based
[5] = inhibitors of clade B AD8 Env fusion, dose response, cell-based, cherry-pick (AID 652062); format: functional;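 note: luciferase signal from cell-cell fusion driven by HIV-1 clade B AD8 Env; potency is for inhibitors of fusion seen as a drop in luminescence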
[6] = Luminescence Cell-Based Dose Retest to Confirm Inhibitors of Cancer Stem Cells. [Related pubchem assays (depositor defined):AID2717, AID2721]; format: functional; details: Homo sapiens
[7] = ZM109 Env clade C HIV-1 fusion inhibitors, dose response, HeLa effector, CEM target cells, luciferase, cherry-pick (AID 652058); format: functional, cell-based
[8] = inhibitors of SNCA 5'UTR-driven reporter translation, confirmation, H4 neuroglioma cells, luminescence (AID 1988); format: functional, cell-based
[9] = molecular target: T2, Heat shock factor protein 1 (Mus musculus, UniProt P38532); assay: inhibition of MG132-induced HSE-luciferase signal, confirmation, cell-based, NIH3T3, luminescence, dose retest (AID 2382); format: functional;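 note: NIH3T3 fibroblasts with HSF1-driven luciferase reporter stressed by proteasome inhibitor MG132; luminescence from HSF1-driven luciferase expression after 8 hours of MG132 stress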
T2 sequence (P38532 whole entry): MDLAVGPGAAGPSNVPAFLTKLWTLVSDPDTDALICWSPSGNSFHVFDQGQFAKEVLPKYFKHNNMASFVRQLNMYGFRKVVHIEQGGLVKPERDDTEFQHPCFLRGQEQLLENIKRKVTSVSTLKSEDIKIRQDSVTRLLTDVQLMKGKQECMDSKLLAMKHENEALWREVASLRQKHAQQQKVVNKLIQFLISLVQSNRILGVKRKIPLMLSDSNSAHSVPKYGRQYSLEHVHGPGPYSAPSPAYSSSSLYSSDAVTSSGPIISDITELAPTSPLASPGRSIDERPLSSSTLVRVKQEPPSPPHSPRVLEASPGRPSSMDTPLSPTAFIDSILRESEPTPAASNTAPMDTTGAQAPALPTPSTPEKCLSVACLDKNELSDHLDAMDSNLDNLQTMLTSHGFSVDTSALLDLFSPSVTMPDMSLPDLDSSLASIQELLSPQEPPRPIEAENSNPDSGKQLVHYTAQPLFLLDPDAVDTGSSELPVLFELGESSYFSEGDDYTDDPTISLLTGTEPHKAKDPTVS

INS1 = assay: beta cell apoptosis inhibitors, cytokine rescue, dose response, luminescence, retest (AID 449756); format: functional, cell-based; details: Rattus norvegicus;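 note: cell death triggered by IL-1 beta plus TNF-alpha plus IFN-gamma mixture; protective hits raise ATP signal compared with cytokine alone wells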
[10] = control 3'UTR Renilla luciferase suppression, dose response, counter-screen for Shn3 inhibitor project, cell-based, Clone20-Shn3RL, cherry-picked (AID 624133); format: functional
[11] = HepG2 cell cytotoxicity, dose response, cytotoxicity control for Shn3 inhibitor project, CellTiter-Glo, cherry-picked (AID 624134); format: functional, cell-based
[12] = inhibitors of firefly luciferase expression or activity, dose response, H4 neuroglioma cells, luminescence (AID 1990); format: functional, cell-based
[13] = Luminescence Cell-Based Dose Response HTS to Identify Inhibitors of 5'UTR Stem-Loop Driven Prion Protein mRNA Translation in H4 Neuroglioblastoma Cells. [Related pubchem assays: 1827 (Project Summary), 1813 (Primary HTS)]; format: functional
[14] = Shn3 3'UTR reporter inhibitors, dose response, cell-based, Clone20 osteoblasts, firefly luciferase, cherry-picked (AID 624132); format: functional;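 note: firefly luciferase luminescence from reporter carrying the Shn3 3'UTR in osteoblasts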
P388/ADR = assay: cells; format: functional; details: Mus musculus, P388/ADR
SN12K1 = assay: cells; format: functional; details: Homo sapiens, SN12K1
[15] = molecular target: T3, DNA repair and recombination protein RAD54-like (Homo sapiens, UniProt Q92698); assay: inhibitors of human RAD54 branch migration, confirmation, biochemical, fluorescence, cherry-picked samples, dose series (AID 651657); format: functional
T3 sequence (Q92698 whole entry): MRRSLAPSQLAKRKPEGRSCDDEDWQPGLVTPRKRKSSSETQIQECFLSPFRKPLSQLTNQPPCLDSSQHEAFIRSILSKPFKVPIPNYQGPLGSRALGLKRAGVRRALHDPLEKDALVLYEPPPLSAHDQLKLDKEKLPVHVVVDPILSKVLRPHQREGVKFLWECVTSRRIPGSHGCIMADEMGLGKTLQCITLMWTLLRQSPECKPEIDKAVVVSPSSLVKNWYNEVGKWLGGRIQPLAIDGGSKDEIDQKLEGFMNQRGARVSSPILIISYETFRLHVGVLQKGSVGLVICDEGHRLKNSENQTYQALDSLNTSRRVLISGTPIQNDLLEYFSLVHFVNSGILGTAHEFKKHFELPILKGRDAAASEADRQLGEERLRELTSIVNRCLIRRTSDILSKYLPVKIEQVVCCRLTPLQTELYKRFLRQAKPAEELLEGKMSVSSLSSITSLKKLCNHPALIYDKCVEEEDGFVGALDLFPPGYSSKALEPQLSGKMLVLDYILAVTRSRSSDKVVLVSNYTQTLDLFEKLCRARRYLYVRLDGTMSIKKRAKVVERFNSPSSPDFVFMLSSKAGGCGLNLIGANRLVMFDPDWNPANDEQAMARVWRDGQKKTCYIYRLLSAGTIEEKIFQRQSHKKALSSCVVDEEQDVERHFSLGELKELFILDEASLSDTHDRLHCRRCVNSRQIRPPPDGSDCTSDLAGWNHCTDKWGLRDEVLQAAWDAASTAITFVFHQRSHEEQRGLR

[16] = molecular target: T4, Ubiquitin-conjugating enzyme E2 N (Homo sapiens, UniProt P61088); format: functional;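 note: Dose-response confirmation in a TR-FRET assay detecting UBC13-driven polyubiquitin chain formation, inhibition measured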
T4 sequence (P61088 whole entry): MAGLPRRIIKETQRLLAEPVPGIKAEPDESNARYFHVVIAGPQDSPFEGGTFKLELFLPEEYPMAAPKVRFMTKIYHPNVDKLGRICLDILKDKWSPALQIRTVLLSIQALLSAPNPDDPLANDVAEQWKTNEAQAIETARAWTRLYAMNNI

[17] = molecular target: DNA dC->dU-editing enzyme APOBEC-3G (Homo sapiens, UniProt Q9HC16); assay: Dose Response confirmation of small molecule APOBEC3G DNA Deaminase Inhibitors via a fluorescence-based single-stranded DNA deaminase assay. [Related pubchem assays (depositor defined):AID493012, AID493028]; format: functional
DNA dC->dU-editing enzyme APOBEC-3G, sequence (Q9HC16 whole entry): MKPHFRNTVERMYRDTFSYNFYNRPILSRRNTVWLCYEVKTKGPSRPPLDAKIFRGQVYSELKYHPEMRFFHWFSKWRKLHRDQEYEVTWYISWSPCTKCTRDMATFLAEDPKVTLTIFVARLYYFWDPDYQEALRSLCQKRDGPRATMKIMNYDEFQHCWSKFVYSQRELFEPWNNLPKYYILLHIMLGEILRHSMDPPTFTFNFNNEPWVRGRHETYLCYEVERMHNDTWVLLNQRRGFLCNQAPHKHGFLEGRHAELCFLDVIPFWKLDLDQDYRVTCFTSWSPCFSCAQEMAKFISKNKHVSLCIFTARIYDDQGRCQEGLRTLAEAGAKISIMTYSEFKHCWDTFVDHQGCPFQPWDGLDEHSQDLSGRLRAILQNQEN

Cc1ccc(-c2cc(-c3ccc(C)cc3O)[nH]n2)cc1
AC50 (HeLa): 44.6 µM (active)

COc1cc(-c2nnc(COC(=O)c3cc(C)nc4ccc(C)cc34)o2)cc(OC)c1OC
IC50 (H9c2): 12.3 µM (active)

CN(C)Cc1ccc(-c2nc3cccc4c3n2CCNC4=O)cc1
IC50 (H9c2): > 79 µM (inactive)

CC(C)Cn1nc(NS(=O)(=O)c2ccccc2)c2cc3ccccc3nc21
EC50 [1]: > 20 µM (not active) | EC50 [2]: > 20 µM (not active)

CCOC(=O)c1c(NC(=O)c2ccc(-n3cnnn3)cc2)sc2c1CCCC2
EC50 [1]: > 20 µM (not active) | EC50 [2]: > 20 µM (not active)

CCCCNC(=S)Nc1ccc2cn[nH]c2c1
IC50 (Leucine aminopeptidase): 75.6 µM (active)

Cc1cc2c3c(c1)C1(SCC(=O)N1c1ccc(F)cc1)C(=O)N3C(C)(C)CC2C (configuration not stated)
AC50 [3]: > 32 µM (inactive) | AC50 [4]: 3.4 µM (active) | AC50 [5]: 9.73 µM (active)

O=C(CCc1nc(O)c2ccccc2n1)Nc1ccc(N2CCCCC2)cc1
IC50 (H9c2): > 79 µM (inactive)

C=CCC1(CC=C)CCCN1C(=O)C1CCC(=O)N(CCc2ccccc2)C1 (configuration not stated)
AC50 (HeLa): 93 µM (active)

COC(=O)c1ccccc1NC(=O)c1nc2nc(C)cc(C)n2n1
IC50 (H9c2): > 79 µM (inactive)

COc1ccc(-c2csc(-n3cccn3)n2)cc1
AC50 (HeLa): 33.9 µM (active)

NS(=O)(=O)c1ccc(NC=C2C(=O)N(C3CCCCC3)C(=O)N(C3CCCCC3)C2=O)cc1
AC50 [6]: 3.92 µM (active) | EC50 [1]: 5.47 µM (active) | EC50 [2]: 5.81 µM (active)

CN(C(=O)Cn1nc(C(=O)O)c2ccccc2c1=O)C1(C#N)CCCCC1
IC50 (H9c2): > 79 µM (inactive)

O=C(COC(=O)c1ccc([N+](=O)[O-])o1)Nc1cccc(S(=O)(=O)N2CCCCC2)c1
IC50 (H9c2): > 79 µM (inactive)

CC(C)=NN=C(N)NC(=S)Nc1ccc(C)cc1
IC50 (Leucine aminopeptidase): 59.3 µM (active)

COc1ccc(N2C(=O)NC(=O)/C(=C(/C)NCCCn3ccnc3)C2=O)cc1
AC50 [7]: 4.33 µM (active) | AC50 [3]: 19.5 µM (active) | AC50 [4]: 2.49 µM (active) | AC50 [5]: 6.76 µM (active)

CC(=O)N1CCN(C(=O)CCc2nc(O)c3ccccc3n2)CC1
IC50 (H9c2): > 79 µM (inactive)

COc1ccccc1CN1C(=O)CN(C2CCCCCC2)C(=O)C1c1ccc(F)cc1 (configuration not stated)
AC50 [7]: 20.9 µM (active) | AC50 [3]: 60.9 µM (active) | AC50 [4]: 30.9 µM (active)

CC(=O)c1sc(NC(=O)c2ccc3c(c2)OCO3)nc1C
AC50 (HeLa): 51.5 µM (active)

CC[C@H]1CN2CCc3cc(OC)c(OC)cc3[C@@H]2C[C@@H]1C[C@H]1NCCc2cc(OC)c(OC)cc21
EC50 [8]: < 0.1 µM (active) | EC50 [9]: < 0.16 µM (active) | AC50 (INS1): 2.35 µM (active) | EC50 [1]: 0.15 µM (active) | AC50 [10]: 0.33 µM (active) | AC50 [11]: 40.5 µM (active) | EC50 [12]: < 0.1 µM (active) | EC50 [13]: < 0.1 µM (active) | AC50 [14]: < 0.26 µM (active) | EC50 [2]: 0.09 µM (active)

O=NN(CCCl)C(=O)NC1CCC(CC2CCC(NC(=O)N(CCCl)N=O)CC2)CC1 (configuration not stated)
GI50 (P388/ADR): 1.64 µM (inactive) | GI50 (SN12K1): 0.385 µM (active)

CCn1cc(C(=O)NCCN(C)C)c(=O)c2cc(F)c(N3CCN(C)CC3)cc21
AC50 [15]: 21.1 µM (active)

O=C(N/N=C\c1cccc(Cl)c1)c1[nH]nc2c1CCCC2
AC50 (HeLa): > 350 µM (inactive)

CCn1c(=O)c2cc(C(=O)NCCN(C)C)sc2c2ccccc21
AC50 [15]: 30.7 µM (active) | IC50 [16]: > 20 µM (inactive)

CC(C)c1ccc(NC2=NN=C(c3cccs3)CS2)cc1
AC50 (HeLa): 63.8 µM (active)

CC(C)N1CCc2c(sc(NC(=O)c3ccc(C(=O)c4ccccc4)cc3)c2C(N)=O)C1
AC50 [15]: 68.7 µM (active)

c1csc(-c2noc(COc3ccc4c(c3)CCCC4)n2)c1
AC50 (HeLa): > 350 µM (inactive)

COc1ccc(/C=N/n2c(S)nnc2-c2cc(C)[nH]n2)cc1OC
IC50 [17]: 8.3 µM (active) | EC50 [9]: > 195 µM (not active)

CCOc1ccc2[nH]c3c(NCCN(C)C)ncnc3c2c1
AC50 [15]: 55.6 µM (active)

— ChEMBL document CHEMBL1201862, “PubChem BioAssay data set” (2004)
